From paper PMC12463105, “NSP7 Molecular Degrader Attenuates Coronaviral Infection Through the β‐TrCP1/FBXO5 Axis” (Advanced Science, 2025)

Assays:
HCoV-OC43 = test system: T1, HCoV-OC43; experiment: microbe, parasite or virus in culture; parameters: HCoV-OC43 infection assay, reduction of viral infection; conditions: Betacoronavirus 1, OC43, read-out: OC43
T1 construct: ATCC VR-1558

SARS-CoV-2 NSP7-HiBiT = conditions: read-out: NSP7- HiBiT; reduction of NSP7-HiBiT signal; degrader

SMILES	IC50 (HCoV-OC43) [µM]	IC50 (SARS-CoV-2 NSP7-HiBiT) [µM]
CCSc1nsc(NC(=O)Nc2cc(OC)ccc2OC)n1 [BC24853, 5-[3-(2,5-dimethoxyphenyl)ureido]-3-(ethylthio)-1,2,4-thiadiazole]	9.87	> 100
CCSc1nsc(NC(=O)NCC(C)C)n1 [BC24896, 3-(ethylthio)-5-(3-isobutylureido)-1,2,4-thiadiazole]	29.9	29.3
CCSc1nsc(NC(=O)NCCCOC)n1 [BC24869, 3-(ethylthio)-5-[3-(3-methoxypropyl)ureido]-1,2,4-thiadiazole]	56.7	> 100
CCSc1nsc(NC(=O)Nc2cccc(C)c2)n1 [BC24863, 3-(ethylthio)-5-[3-(m-tolyl)ureido]-1,2,4-thiadiazole]	2.03	5.09
CCSc1nsc(NC(=O)NC2CCCCC2)n1 [BC24894, 5-(3-cyclohexylureido)-3-(ethylthio)-1,2,4-thiadiazole]	17.5	23.7
CCSc1nsc(NC(=O)Nc2ccccc2CC)n1 [BC24864, 5-[3-(o-ethylphenyl)ureido]-3-(ethylthio)-1,2,4-thiadiazole]	63.8	47.4
CCSc1nsc(NC(=O)Nc2ccc(C)c(F)c2)n1 [BC24873, 3-(ethylthio)-5-[3-(3-fluoro-4-tolyl)ureido]-1,2,4-thiadiazole]	7.74	8.51
CCSc1nsc(NC(=O)Nc2cc(F)ccc2F)n1 [BC24876, 5-[3-(2,5-difluorophenyl)ureido]-3-(ethylthio)-1,2,4-thiadiazole]	5.5	19.4
CCSc1nsc(NC(=O)N[C@@H](C)CC)n1 [BC24892, 5-{3-[(S)-1-methylpropyl]ureido}-3-(ethylthio)-1,2,4-thiadiazole]	> 100	> 100
CCSc1nsc(NC(=O)Nc2cccc(C)c2C)n1 [BC24847, 3-(ethylthio)-5-[3-(2,3-xylyl)ureido]-1,2,4-thiadiazole]	9.14	65.8
CCSc1nsc(NC(=O)NCCC(C)C)n1 [BC24893, 3-(ethylthio)-5-(3-isopentylureido)-1,2,4-thiadiazole]	13.7	18.5
CCSc1nsc(NC(=O)Nc2ccccc2C(F)(F)F)n1 [BC24866, 3-(ethylthio)-5-{3-[o-(trifluoromethyl)phenyl]ureido}-1,2,4-thiadiazole]	12.4	18.5
CCOC(=O)[C@H](C)NC(=O)Nc1nc(SCC)ns1 [BC24902, ethyl (S)-2-{3-[3-(ethylthio)-1,2,4-thiadiazol-5-yl]ureido}propionate]	> 100	> 100
CCSc1nsc(NC(=O)NCCc2ccccc2)n1 [BC24881, 3-(ethylthio)-5-(3-phenethylureido)-1,2,4-thiadiazole]	31.9	30
CCSc1nsc(NC(=O)NC(C)C)n1 [BC24891, 3-(ethylthio)-5-(3-isopropylureido)-1,2,4-thiadiazole]	> 100	> 100
CCSc1nsc(NC(=O)NC[C@H]2CCCO2)n1 [BC24887, 3-(ethylthio)-5-(3-{[(R)-perhydro-2-furyl]methyl}ureido)-1,2,4-thiadiazole]	> 100	> 100
CCSc1nsc(NC(=O)NCc2cccc(OC)c2)n1 [BC24883, 3-(ethylthio)-5-{3-[(m-methoxyphenyl)methyl]ureido}-1,2,4-thiadiazole]	67.8	> 100
CCSc1nsc(NC(=O)Nc2ccccc2)n1 [BC24844, 3-(ethylthio)-5-(3-phenylureido)-1,2,4-thiadiazole]	9.06	9.37
CCSc1nsc(NC(=O)Nc2ccccc2OC)n1 [BC24840, 3-(ethylthio)-5-[3-(o-methoxyphenyl)ureido]-1,2,4-thiadiazole]	11.5	> 100
CCOC(=O)C[C@H](NC(=O)Nc1nc(SCC)ns1)c1ccccc1 [BC24871, ethyl (S)-3-{3-[3-(ethylthio)-1,2,4-thiadiazol-5-yl]ureido}-3-phenylpropionate]	23.1	> 100
